“Also recorded” adds a separate entry of the source. Where two headings read alike, the source gives them in different places.
Tests used:
C57 mice [1] = conditions: mouse, in vivo; for locomotor activity: ip
BTBR mice [2] = assay: Social preference procedure: compartment entries (proxy for locomotor stimulant effects), BTBR; format: in vivo
Procedure: (§1) This assay was conducted in adult male C57 and BTBR mice (n=6 per group) in a dedicated conditioning room where ambient light, sound, and human contact were tightly controlled. Social preference chambers consist of two polycarbonate boxes (13.5 cm wide×22.5 cm tall×31.0 cm deep), floored with rough-textured black ABS plastic, and connected to one another by a 1.25″ PVC T-junction. An infrared photobeam emitter/detector array is mounted at each intersection of the T-junction and each preference compartment, and as a mouse traversed the apparatus, it would break the photobeam upon entry to or exit from each preference compartment. Beam breaks started or stopped a counter on an interfaced computer, allowing automated collection of time spent in each compartment. At the end of each test, data were reported as time (in seconds) spent in each compartment, the number of entries into each compartment, and the average time spent in each compartment following an entry. Social preference tests were conducted in an iterative manner, with each test subject completing four distinct phases as described below. Between testing sessions, chambers were sanitized by wiping the insides with a disinfectant product provided by the UAMS Department of Laboratory Animal Medicine. At the end of the week (upon completion of all phases of the procedure), each apparatus was disassembled and all parts were sanitized. No food or water were available during social preference sessions, but were available in the home cage immediately afterwards.
(§2) Quantification of total entries into the preference compartments provided a proxy measurement for locomotor stimulant effects of the various doses of the various test drugs. This established a limit to the drug doses that can be tested in the social preference procedure, as induction of locomotor stimulant effects confounds preference assessments (because mice stop attending to the social stimuli in each compartment and instead spend their time engaged in locomotor behavior.) Motor activity varied across the distinct phases of social preference testing, in part because the habituation session is twice as long (30 minutes) as the novelty, sociability, and social novelty tests (15 minutes each), but also because mice emitted high levels of exploratory behavior in novel environments. Thus, as familiarity with the test apparatus increased over successive exposures to the chambers, the number of entries decreased.
(§3) (Note that entries were collected for every test, but drug effects on entries during earlier phases may be less reliable due to the confounding influence of changing familiarity with the apparatus across phases.)

C57 mice [3] = assay: Novelty preference test, C57; format: in vivo
Procedure: as §1
A single novelty preference session occurred the day after the habituation test, where one compartment contained an empty wire mesh cup and the other compartment contained an identical wire mesh cup with a novel dummy mouse inside. The position of the dummy mouse (left or right compartment) was counterbalanced across subjects. Dummy mice were constructed from 2.5″ lengths of white ¾″ PVC pipe, with a zip tie attached to one end (to mimic a tail) and two red dots drawn on the other end (to mimic eyes.) During this session, mice were weighed, administered an injection, and returned to their home cage for a 30 min pretreatment period. Mice were then introduced into the T-junction and allowed to explore both preference compartments for 15 minutes. These tests were conducted as a procedural control to ensure that any observed drug effects were not simply due to enhancement of the innate novelty preference of mice. Novelty preference sessions always occurred on Tuesdays or Wednesdays to prevent any weekend testing.

BTBR mice [4] = assay: Radiotelemetry of locomotor activity, BTBR; format: in vivo; conditions: for locomotor activity: 0 to 240 minutes; for pattern of locomotor activity / dose-effect curve: any dose
Procedure: The radiotelemetry assay was conducted in adult male C57 and BTBR mice (n=6 per group) in a dedicated testing room where ambient light, sound, and human contact were tightly controlled.
Prior to surgical implantation of radiotelemetry probes, mice received 3 mg/kg meloxicam (IP), and anesthesia was induced with 4% inhaled isoflurane and maintained with 1-3% isoflurane (as needed) throughout the procedure at a flow rate of 1.5 litres/minute. The abdominal area of each animal was treated with depilatory cream, then sanitized with 3 alternating scrubs with iodine and alcohol. A rostral-caudal cut approximately 1.5 cm in length was made with sterile skin scissors, providing access to the intraperitoneal cavity. A cylindrical glass-encapsulated radiotelemetry probe (model ER-4000 E-Mitter, Mini Mitter, Bend, OR, USA) was then inserted. These probes measure 15.5 mm×6.5 mm and weigh approximately 1 gram. Incisions were closed (skin layer and muscle layer separately) using reverse cutting 5-0 Vicryl absorbable sutures for the muscle layer and 5-0 nylon suture material for the skin layer. Surgeries were carried out at least 7 days before initiation of experimental conditions, allowing time for incisions to heal and for animals to recover normal body weights. Following surgery, all implanted mice were individually housed in Plexiglas cages within the telemetry room for the duration of all experiments. Implanted transmitters produce activity- and temperature-modulated signals which are sent to a receiver (model ER-4000 Receiver, Mini Mitter Co., Inc.) underneath each cage. Following use, telemetry probes were removed from carcasses, wiped with alcohol swabs, and stored in the disinfectant solution until re-use.
At least 7 days after surgical implantation of radiotelemetry probes, mice in their individual home cages were placed atop a telemetry energizer/receiver, which powered probes and transmitted their data to an interfaced computer. Upon initiation of an experimental session, the computer collected two data updates from the probes at 5 min intervals: core temperature (in ° C.) on one channel, and locomotor counts (in arbitrary units, depending on the relative position of the probe atop the receiver) on the other. After at least 60 minutes of baseline data collection, mice were removed from their cages, injected with saline or a given dose of a specific drug, then returned to the home cage 24 hours of data collection.
Food and water were always freely available in the home cage. Mice were injected with ascending doses of a given drug, with at least 48 hours separating doses. Because there are few studies of drug effects in BTBR mice, the first drug dose tested occasionally elicited unexpectedly large locomotor effects in these animals. In these cases, smaller drug doses were tested next, after a washout period of at least one full day.

C57 mice [5] = assay: Social preference procedure: compartment entries (proxy for locomotor stimulant effects), C57; format: in vivo
Procedure: as §1, §2, §3

BTBR mice [6] = assay: Sociability test, BTBR; format: in vivo; conditions: 3.0 mg/kg IP
Procedure: as §1, with “At the end of the week (upon completion of all phases of the procedure), each apparatus was disassembled and all parts were sanitized. No food or water were available during social preference sessions, but were available in the home cage immediately afterwards.” left out

[7] = rats, cited from earlier work; for Cmax (maximum MDMA concentration): 2 mg/kg; for Cmax: 10 mg/kg
[8] = 3.0 mg/kg IP, social novelty test

## CN[C@@H](C)Cc1ccc2c(c1)OCO2 [S(+)-MDMA, (2S)-1-(1,3-benzodioxol-5-yl)-N-methylpropan-2-amine]
C57 mice [1]
  locomotor dose-effect curve (total ambulatory activity): classical “inverted U-shaped” dose-effect curve
  stereotypy or hyperstimulation of mice: stereotypy or hyperstimulation of mice is seen
C57 mice [1]; 10 mg/kg
  locomotor activity: elicits the greatest locomotor stimulation
BTBR mice [2]; 3.0 mg/kg IP, social novelty test, 3 mg/kg
  compartment entries (locomotor stimulant effect): roughly equivalent entries to 3.0 mg/kg racemic MDMA
BTBR mice [2]; 3.0 mg/kg IP, social novelty test, listed as S-MDMA, 3 mg/kg
  compartment entries (locomotor stimulant effect): increased the number of entries
BTBR mice [2]; all tested doses IP
  compartment entries (locomotor stimulant effect): dose-response stimulant effect
C57 mice [3]; various doses IP
  novelty preference (time spent with the dummy mouse): no systematic effects on novelty preference
BTBR mice [4]; 10 mg/kg IP
  locomotor activity: elicited a substantially large stimulation in motor activity
BTBR mice [4]; 30 mg/kg IP
  locomotor activity: elicited a large stimulation in motor activity
BTBR mice [4]
  pattern of locomotor activity / dose-effect curve: No evidence of motor stereotypy
C57 mice [5]; various doses IP
  compartment entries (locomotor stimulant effect): dose-response stimulant effect
BTBR mice [6]
  sociability (time spent with the stranger mouse vs dummy): did not alter sociability

## CNC(C)Cc1ccc2c(c1)OCO2 (racemic) [racemic MDMA, 1-(1,3-benzodioxol-5-yl)-N-methylpropan-2-amine]
C57 mice [1]
  locomotor dose-effect curve (total ambulatory activity): classical “inverted U-shaped” dose-effect curve
  pattern of locomotor activity across the time course: consistent with motor stereotypy
  stereotypy or hyperstimulation of mice: stereotypy or hyperstimulation of mice is seen
C57 mice [1]; 10 mg/kg
  locomotor activity: lesser hyperactivity is observed
C57 mice [1]; 30 mg/kg
  locomotor activity: elicit more activity than the pure S(+)-MDMA
BTBR mice [2]; [8]
  compartment entries (locomotor stimulant effect): increased the number of entries
BTBR mice [2]; 5.6 mg/kg IP, social novelty test
  compartment entries (locomotor stimulant effect): ~100 entries
BTBR mice [2]; all tested doses IP
  compartment entries (locomotor stimulant effect): dose-response stimulant effect
C57 mice [3]; 3.0 mg/kg IP
  novelty preference (time spent with the dummy mouse): had no effects on locomotor activity (see FIG. 4) or novelty preference
C57 mice [3]; 5.6 mg/kg IP
  novelty preference (time spent with the dummy mouse): elicited avoidance of the dummy mouse
BTBR mice [4]
  pattern of locomotor activity / dose-effect curve: No evidence of motor stereotypy; also recorded: does not follow this biphasic pattern
C57 mice [5]; [8]
  compartment entries (locomotor stimulant effect): had no effects on locomotor activity
C57 mice [5]; various doses IP
  compartment entries (locomotor stimulant effect): dose-response stimulant effect
[7]; intraperitoneal
  Cmax (maximum MDMA concentration): 210 ng/mL
  Cmax: 2257 ng/mL
[7]; oral
  Cmax (maximum MDMA concentration): 46 ng/mL
  Cmax: 966 ng/mL
[7]; subcutaneous
  Cmax (maximum MDMA concentration): 196 ng/mL
  Cmax: 1130 ng/mL
